Test results as given in paper PMC12741935 (Alzheimer's & Dementia, 2025).

How the values were obtained:
[1] = test system: 14 DIV hippocampal neurons; assay: oAβ-induced dendrite degeneration (MAP2 dendrite length, number, complexity) in cultured hippocampal neurons; assay type: cell-based, mouse; details: oAβ 1 µM + inhibitor 24 h vs oAβ alone, NVS-PAK1-1 10 nM, AZ 1 nM, G 5 nM; for total dendrite length per neuron: PAK1-C 10 nM
Procedure: (§1) For in vitro study, all animal procedures were conducted in accordance with the National Institutes of Health Guide for the Care and Use of Laboratory Animals using protocols approved by the institutional animal care and use committee at Stanford University. Timed pregnant C57BL/6 mice (Strain code: 027) were purchased from Charles River Laboratories and delivered on embryonic day 15 (E15), after which E16 embryos were used for primary hippocampal cultures. Primary embryonic mouse hippocampal neuron cultures were plated on poly‐D‐lysine‐coated (10 µg/mL) glass cover slips at 40,000 to 50,000 cells per well in 12‐well plates (Corning Life Sciences). Cells were seeded in plating medium DMEM/F12 supplemented with 10% fetal bovine serum and 1 × penicillin/streptomycin (PS) for 2 hours. Medium was then changed to B‐27 Plus Neuronal Culture System (Invitrogen) supplemented with PS, and 2 mM glutamine.
(§2) Immunofluorescence was performed as described previously.[24] Briefly, cultured hippocampal neurons were fixed in 4% formaldehyde for 20 minutes, permeabilized for 6 minutes in 80% ice‐cold methanol, and incubated with primary antibodies at 4°C overnight. Primary antibodies used were rabbit polyclonal MAP2 antibody for labeling dendrites (1:1000, #8707, Cell Signaling) and mouse monoclonal drebrin antibody for labeling dendritic spines (1:300; Cat#ADI‐NBA‐110, Enzo). Secondary antibodies consisted of donkey antirabbit or antimouse conjugated with either FITC or Cy3 (1:400; Jackson ImmunoResearch Laboratories, Inc.).
(§3) The cultured hippocampal neurons were imaged using an oil‐based 63x objective on a Leica Stellaris 5 confocal microscope. The cell nucleus was stained with DAPI and imaged at a wavelength of 405 nm (blue channel), the dendrites stained by MAP2 were imaged at 488 nm wavelength (green channel), and the drebrin‐stained spines were imaged at a wavelength of 561 nm (red channel). Z‐stack images of neurons were acquired at a 1024 × 1024 resolution, a zoom factor of 1.0, and a z‐step size of 0.5 µm. The number of steps for every z‐stack picture of a neuron were determined by the size of the neuron in the z‐plane, to ensure that the entirety of a neuron is captured in the picture. The areas to be imaged were selected systematically, starting from the top‐left region to proceeding to the bottom‐right region of a coverslip. For imaging, preference was given to field of views containing isolated neurons versus clustered neurons.
(§4) For quantification of drebrin‐positive spines in vitro, the images were analyzed using Imaris 9.3 software. Each image consisted of one major neuron and the “filaments” option in Imaris was applied to manually trace along the dendrites of every neuron, by placing starting and seed points at the beginning and along the length of the dendrites, respectively. The largest dendrite diameter (i.e., Starting Point) was set at 9.00 µm threshold while the thinnest dendrite diameter (i.e., Seed Point) was set at 1.00 µm threshold. After manually tracing the dendrites, the spines along the dendrites were assessed using the automatic “spine detection” function in Imaris. The thinnest spine diameter was set at 0.80 µm threshold while the maximum spine length was set at 5.00 µm. The spine density (number of spines/dendrite length) was then calculated for each neuron. All image acquisition and quantification were performed in a blind manner. For in vitro quantification of dendrite degeneration, Neurolucida (MBF Biosciences) in the manual mode was used to measure the total dendritic length, numbers of dendrites, and dendritic complexity for each neuron.

[2] = test system: kinome; broad panel of proteases, receptors, and bromodomains; details: cited from earlier work
[3] = test system: 14 DIV mouse hippocampal neurons; assay: oTau-induced spine loss: drebrin-positive spine density in cultured hippocampal neurons; assay type: cell-based; details: oTau 50 nM + inhibitor 24 h vs oTau alone; NVS-PAK1-1 10 nM, NVS-PAK1-C 10 nM, AZ13705339 1 nM, G5555 5 nM
Procedure: as §1, §2
The cultured hippocampal neurons were imaged using an oil‐based 63x objective on a Leica Stellaris 5 confocal microscope. The cell nucleus was stained with DAPI and imaged at a wavelength of 405 nm (blue channel), the dendrites stained by MAP2 were imaged at 488 nm wavelength (green channel), and the drebrin‐stained spines were imaged at a wavelength of 561 nm (red channel). […] The number of steps for every z‐stack picture of a neuron were determined by the size of the neuron in the z‐plane, to ensure that the entirety of a neuron is captured in the picture. […]
For quantification of drebrin‐positive spines in vitro, the images were analyzed using Imaris 9.3 software. […] After manually tracing the dendrites, the spines along the dendrites were assessed using the automatic “spine detection” function in Imaris. […] The spine density (number of spines/dendrite length) was then calculated for each neuron. All image acquisition and quantification were performed in a blind manner. For in vitro quantification of dendrite degeneration, Neurolucida (MBF Biosciences) in the manual mode was used to measure the total dendritic length, numbers of dendrites, and dendritic complexity for each neuron.

[4] = test system: 14 DIV hippocampal neurons; assay: oTau-induced dendrite degeneration (MAP2 dendrite length, number) in cultured hippocampal neurons; assay type: cell-based, mouse; details: oTau 50 nM + inhibitor 24 h vs oTau alone, NVS-PAK1-1 10 nM, AZ 1 nM, G 5 nM; for total dendrite length per neuron: PAK1-C 10 nM
Procedure: as §1, §2, §3, §4

[5] = test system: 14 DIV mouse hippocampal neurons; assay: oAβ-induced spine loss: drebrin-positive spine density in cultured hippocampal neurons; assay type: cell-based; details: oAβ 1 µM + inhibitor 24 h vs oAβ alone; NVS-PAK1-1 10 nM, NVS-PAK1-C 10 nM, AZ13705339 1 nM, G5555 5 nM
Procedure: as §1, §2, §3
For quantification of drebrin‐positive spines in vitro, the images were analyzed using Imaris 9.3 software. Each image consisted of one major neuron and the “filaments” option in Imaris was applied to manually trace along the dendrites of every neuron, by placing starting and seed points at the beginning and along the length of the dendrites, respectively. The largest dendrite diameter (i.e., Starting Point) was set at 9.00 µm threshold while the thinnest dendrite diameter (i.e., Seed Point) was set at 1.00 µm threshold. After manually tracing the dendrites, the spines along the dendrites were assessed using the automatic “spine detection” function in Imaris. […] The spine density (number of spines/dendrite length) was then calculated for each neuron. All image acquisition and quantification were performed in a blind manner. For in vitro quantification of dendrite degeneration, Neurolucida (MBF Biosciences) in the manual mode was used to measure the total dendritic length, numbers of dendrites, and dendritic complexity for each neuron.

Structure (SMILES) | dendrite number per neuron [1] | total dendrite length per neuron [1] | off-target kinase inhibition [2] | drebrin-stained spine density (spine counts per µm of dendritic length) [3] | dendrite number per neuron [4] | total dendrite length per neuron [4] | drebrin-stained spine density (spine counts per µm of dendritic length) [5]
CNc1ncc2cc(-c3ccc(-c4cccc(C)n4)cc3Cl)c(=O)n(C[C@H]3OC[C@H](N)CO3)c2n1 [G5555] | significantly increased dendrite number per neuron | Neither G nor PAK1‐C showed a significant dendrite length difference | inhibit off‐target kinases | significantly higher spine counts | significantly increased dendrite number per neuron | Neither G nor PAK1‐C showed a significant dendrite length difference | significantly higher spine counts
CN(C)C(=O)N1CC[C@H](N=C2Nc3cc(F)ccc3N(CC(F)F)c3ccc(Cl)cc32)C1 [NVS‐PAK1‐C] | – | Neither G nor PAK1‐C showed a significant dendrite length difference | – | not reflected | – | Neither G nor PAK1‐C showed a significant dendrite length difference | not reflected
CCS(=O)(=O)c1cc(Nc2ncc(F)c(N(Cc3ccccc3C#N)c3cc(CO)ccc3C)n2)ccc1N1CCN(C)CC1 [AZ13705339] | significantly increased dendrite number per neuron | preserved dendrite length | inhibit off‐target kinases | significantly higher spine counts | significantly increased dendrite number per neuron | preserved dendrite length | significantly higher spine counts
